Data from patent US5858702A, “Isolation, cloning and expression of transmembrane water channel Aquaporin 5 (AQP5)” (The Johns Hopkins University, priority 1995, dated 1999).

How the values were obtained:
[1] = Stopped-flow water flux (Pf) in control liposomes, effect of mercurial reagents; format: biochemical; conditions: 1 mM mercurial
Protocol: Purified AQP1 was stored overnight at 0° C. or frozen for several days at -80° C. prior to reconstitution. Reconstitution into proteoliposomes was carried out in a final volume of 1 ml containing 60-90 μg of purified AQP 1 protein in chromatography buffer, 9 mg of bath-sonicated E. coli phospholipid, 1.25% (w/v) octyl glucoside, and 50 mM Tris-HCl (pH 7.5). The mixture was briefly blended on a vortex mixer and incubated for 20 minutes on ice. […] Protein and phospholipid were measured as described by Ambudkar & Maloney (J. Biol. Chem., 1986, 261:10079-10086).
Permeability measurements. Membrane permeability measurements (Pf) were measured by exposing AQP1 proteoliposomes or control liposomes to an osmotic gradient by rapid mixing with an equal volume of another solution containing buffer A plus sufficient sucrose to increase osmolality in the mixed solutions to a value 120% of that in the original solution. This was performed with a stopped-flow fluorometer (SF.17MV, Applied Photophysics, Leatherhead, U.K.) with a measured dead time of 0.7 ms. […] Extravesicular carboxyfluorescein fluorescence was completely quenched using anti-fluorescein antibody (Harris et al., 1990, Am. J. Physiol. 259:F366-F371). […]

Red cell water channels = conditions: submillimolar concentrations; cited from earlier work

SMILES: [Cl][Hg][Cl] [HgCl2]
- effect on the Pf of control liposomes [1]: Neither pCMBS nor HgCl2 had any effect
- inhibition of red cell water channels (Red cell water channels): can be inhibited by submillimolar concentrations
